Common to all, as to assay type: cell-based
For test [1], the system named is human cervix carcinoma KB 3.1 (DSM ACC 158). Put plainly: Cytotoxic activity, KB 3.1 cells. The note with it: KB 3-1, cell line human cervix carcinoma KB 3.1 (DSM ACC 158).
For test [2], the system named is mouse fibroblast L929 (ATCC CCL1). Put plainly: Cytotoxic activity, L929 cells. The conditions noted are these: cell line mouse fibroblast L929 (ATCC CCL1).
Test [3] deals with human lung carcinoma A-549 (DSM ACC 107). The test can be described thus: Cytotoxic activity, A-549 cells. The note with it: A549, cell line human lung carcinoma A-549 (DSM ACC 107).

SMILES strings stand for the structures.

A word on the IC50: it is the concentration that gives 50% inhibition. A low value points to inhibition by little substance.

Turning to `C/C(=C\c1csc(C)[n+]1[O-])[C@@H]1C[C@@H]2O[C@]2(C)CCC[C@H](C)[C@H](O)[C@@H](C)C(=O)C(C)(C)[C@@H](O)CC(=O)O1` [epothilone B-N-oxide], the IC50 in test [1] stood at 2 nM; in test [2] it was 4 nM; in test [3], 1.5 nM.

The values are drawn from patent publication EP0987268B1, “Pharmaceutical agents containing epothilone A-N-oxide and/or epothilone B-N-oxide” (Gesellschaft für Biotechnologische Forschung mbH (GBF), priority 1998, dated 2000).
